# Tested on: H. pylori
# Test: E-test (epsilon test, AB Biodisc) antibiotic sensitivity of H. pylori cultured from patients
# Assay type: cell-based, Helicobacter pylori
# Source text: The E-test is used as a graded antibiotic sensitivity detecting strip for examining resistance of H.pylori.
smiles,measurement,setting,value
CO[C@H]1/C=C/O[C@@]2(C)Oc3c(C)c(O)c4c(c3C2=O)C2=NC3(CCN(CC(C)C)CC3)NC2=C(NC(=O)/C(C)=C\C=C\[C@H](C)[C@H](O)[C@@H](C)[C@@H](O)[C@@H](C)[C@H](OC(C)=O)[C@@H]1C)C4=O [Rifabutin],E. Test Rifabutin,H. pylori isolate of each patient,< 0.002 µg/mL
same,E. Test Rifabutin Result,"H. pylori isolate of each patient, Resistant/Sensitive",Sensitive
same,sensitivity of infection to rifabutin,all cases of H. pylori infection resistant to one or both of metronidazole and clarithromycin,sensitive

# — patent US6489317B1, “Method for eradication of Helicobacter pylori” (priority 1998, dated 2002)
